{"source": "patent US11964000B2", "about": "“Cancer treatment methods using nanofiber stabilized growth factors” (Northwestern University, priority 2020, dated 2024)", "molecules": {"B1": {"name": "Bone morphogenetic protein 4 (protein)", "chain": "SPKHHSQRARKKNKNCRRHSLYVDFSDVGWNDWIVAPPGYQAFYCHGDCPFPLADHLNSTNHAIVQTLVNSVNSSIPKACCVPTELSAISMLYLDEYDKVVLKNYQEMVVEGCGCR"}}, "key": {"KNS42 cells": {"tested_on": "KNS42 cells", "experiment": "KNS42 cell viability in response to vincristine and vinblastine after BMP4 treatment", "format": "cell-based, human", "source_text": "(§1) FIG. 2. BMP4 increases chemotherapeutic efficacy via reducing SETD1A and H3K4me3. (FIG. 2A) H3K4me3 levels in pediatric high-grade glioma cells in response to BMP4 (1 to 100/ng/ml). (FIG. 2B) SETD1A, SMAD1/5/8, MDR1, H3K4me3 levels in pediatric high-grade glioma-KNS42 cells and LCH-13-pGBM patient derived primary cultured cells. (FIG. 2C) KNS42 cell viability in response to vincristine (VCR) and vinblastine (VBL) with/without Dorsomorphine, a phosphoSMAD1/5/8 inhibitor. (FIG. 2D, FIG. 2E) KNS42 cell viability in response to VCR and VBL following down- or up-regulation of SETD1A via siSETD1A (D) or pET28-SETD1A and pET28-SETD1A with PSC833, a specific MDR1 inhibitor (E), respectively. (FIG. 2F) Protein immunoprecipitation with SMAD1/5/8, pSMAD1/5/8 antibodies from total protein extracts from BMP4 treated KNS42 cells using Biotin-streptavidin kit (Thermo Fisher) and detected with SETD1A, SMAD1/5/8, pSMAD1/5/8 using western blots.\n(§2) This decreasing effect is reversed by Dorsomorphine, an inhibitor of pSMAD1/5/8 (FIG. 2C). In parallel, it was also tested and verified that SETD1A is associated with chemosensitivity in vitro in HGG cells (FIGS. 2D and E). […] Thus, it was hypothesized that BMP4 is altering gene expression through its effect on histone PTM. These findings prompted investigation of 1) in addition to H3K4me3, determining other histone PTMs that are affected subsequent to BMP4 treatment of tumor cells; and 2) other gene expression alterations that contribute to the heightened tumor cell response to cytotoxic therapy following BMP4 treatment."}, "BMP4": {"target": "T1, BMP4 (Homo sapiens, UniProt P12644)", "T1 sequence (P12644 293-408)": "B1 chain", "experiment": "ELISA of BMP4 half-life with peptide amphiphile nanostructures", "conditions": "BMP4 with PA nanostructures", "description": "FIG. 3. […] (FIG. 3A) Molecular structure of GlncPA molecule (i.e. the glycosylated peptide amphiphile or “GPA”) and schematic of the self-assembled GlncPA nanofiber. The grey molecular region guides the self-assembly process into nanofibers, the blue molecular region contains the tri-sulfated monosaccharide responsible for protein binding actions. (FIG. 3B) SEM of GlncPA nanofiber bundles after exposure to blood proteins for 5 minutes. […] (Abbreviation: E2PA=filler PA=E2-PA, GlncPA=glycosylated PA=GPA)\nThe grey molecular region guides the self-assembly process into nanofibers, the blue molecular region contains the tri-sulfated monosaccharide responsible for protein binding actions."}, "HGG cells": {"tested_on": "HGG cells", "experiment": "HGG cell chemosensitivity (carboplatin) with PA-bound BMP4", "format": "cell-based, human", "conditions": "PA 25 μM with BMP4 5 ng/ml; response to carboplatin treatment", "source_text": "(§3) FIG. 5. Self-assembled peptide amphiphile nanostructures extend and enhance BMP4 effects in pediatric high grade glioma cells in vitro. (FIG. 5A) Western blots show PAs enhance BMP4 function by activating its downstream target pSMAD1/5/8 in pediatric glioma KNS42 (FIG. 5B) and CHLA200 cells. (FIG. 5C) Increased therapeutic efficacy in response to carboplatin treatment.\n(§4) To investigate biological effects of PA-BMP4, HGG responses to different types of PAs, both with and without bound BMP4, were analyzed. HGG cells were treated with BMP4 (5 ng/ml), GlncPA (25 μM) and GlncPA (25 μM)-BMP4 (5 ng/ml), E2-PA (25 μM) and E2-PA (25 μM)-BMP4 (5 ng/ml) for 24h and 72h."}, "pSMAD1/5/8": {"tested_on": "pSMAD1/5/8", "experiment": "Western blot of pSMAD1/5/8 in HGG cells treated with PAs with and without BMP4", "format": "cell-based, human", "conditions": "PA 25 μM with BMP4 5 ng/ml, 24h and 72h; KNS42 and CHLA200 cells", "source_text": "as §3, §4"}, "[1]": {"conditions": "Cy3-coupled PA, intracranial injection, compared with E2PA and MixPA", "quoted_text": "(FIG. 6A) Intracranial distribution of glycosylated (GlncPA), E2 (E2PA) and glycosylated+E2 (MixPA) peptide amphiphiles coupled with Cy3.\nIntracranial distribution of PAs administered directly into mouse brain, as well as the anti-tumor activity of direct intratumoral administration of PA-bound BMP4, was investigated."}, "H3K4me3": {"tested_on": "H3K4me3", "experiment": "H3K4me3 levels in pediatric high-grade glioma cells in response to BMP4", "format": "cell-based, human", "conditions": "BMP4 1 to 100 ng/ml", "source_text": "as §1\nThis decreasing effect is reversed by Dorsomorphine, an inhibitor of pSMAD1/5/8 (FIG. 2C). In parallel, it was also tested and verified that SETD1A is associated with chemosensitivity in vitro in HGG cells (FIGS. 2D and E). […] Thus, it was hypothesized that BMP4 is altering gene expression through its effect on histone PTM. […]"}, "pSMAD1/5/8, SETD1A, MDR1": {"tested_on": "pSMAD1/5/8, SETD1A, MDR1", "experiment": "Western blot of SETD1A, SMAD1/5/8, MDR1 in KNS42 cells and LCH-13-pGBM primary cultured cells after BMP4", "format": "cell-based, human", "conditions": "KNS42 and LCH-13-pGBM cells, BMP4 treatment", "source_text": "as §1, §2"}}, "note": "Entries after “also recorded” stand apart in the source; their conditions may differ. Residues, ends and D or L forms follow the SMILES beside them. Groups on a side chain read outwards from the residue. *: point of attachment. X1 = CC(=O)N[C@H]1[C@H](OCCn2cc(CCC(=O)*)nn2)O[C@H](COS(=O)(=O)O)[C@@H](OS(=O)(=O)O)[C@@H]1OS(=O)(=O)O; Palmitoyl = CCCCCCCCCCCCCCCC(=O)*; AEEA = NCCOCCOCC(=O)O"}
{"molecule": "c1cc(-c2cnn3cc(-c4ccc(OCCN5CCCCC5)cc4)cnc23)ccn1", "note": "[Dorsomorphine, reference compound]", "values": [{"measurement": "effect on BMP4-induced decrease of cell viability with VCR or VBL", "setting": "KNS42 cells; Dorsomorphine, inhibitor of pSMAD1/5/8, added", "value": "reversed"}]}
{"molecule": "CCCCCCCCCCCCCCCC(=O)N[C@H](C(=O)N[C@H](C(=O)N[C@@H](C)C(=O)N[C@@H](C)C(=O)N[C@@H](CCC(=O)O)C(=O)N[C@@H](CCC(=O)O)C(N)=O)C(C)C)C(C)C", "note": "[E2-PA] (Palmitoyl-VVAAEE-NH2)", "values": [{"measurement": "BMP4 half-life", "setting": "BMP4", "value": "extend BMP4 half-life"}, {"measurement": "HGG cell chemosensitivity", "setting": "HGG cells", "value": "increased HGG cell chemosensitivity"}, {"measurement": "BMP4 activity as phosphorylation of SMAD1/5/8", "setting": "pSMAD1/5/8", "value": "enhance BMP4 activity"}]}
{"molecule": "CCCCCCCCCCCCCCCC(=O)N[C@H](C(=O)N[C@H](C(=O)N[C@@H](C)C(=O)N[C@@H](C)C(=O)N[C@@H](CCC(=O)O)C(=O)N[C@@H](CCC(=O)O)C(=O)N[C@@H](CCCCNC(=O)COCCOCCNC(=O)CCc1cn(CCO[C@@H]2O[C@H](COS(=O)(=O)O)[C@@H](OS(=O)(=O)O)[C@H](OS(=O)(=O)O)[C@H]2NC(C)=O)nn1)C(N)=O)C(C)C)C(C)C", "note": "[GlncPA] (Palmitoyl-VVAAEEK([AEEA-X1])-NH2)", "values": [{"measurement": "BMP4 half-life", "setting": "BMP4", "value": "markedly prolong the half-life of BMP4"}, {"measurement": "intracranial distribution", "setting": "[1]", "value": "greater distribution"}]}
{"molecule": "B1", "values": [{"measurement": "H3K4me3 level", "setting": "H3K4me3", "value": "reduces H3K4me3; also recorded: significant decrease in H3K4me3"}, {"measurement": "cell viability with vinblastine (VBL)", "setting": "KNS42 cells; BMP4 for 48 hrs, then VBL 2 μg/ml, relative to VBL alone", "value": "markedly decreased cell viability"}, {"measurement": "cell viability with vincristine (VCR)", "setting": "KNS42 cells; BMP4 for 48 hrs, then VCR 1 μg/ml, relative to VCR alone", "value": "markedly decreased cell viability"}, {"measurement": "expression of SETD1A", "setting": "pSMAD1/5/8, SETD1A, MDR1", "value": "decreasing expression of SETD1A"}, {"measurement": "expression of multidrug resistant gene 1 (MDR1)", "setting": "pSMAD1/5/8, SETD1A, MDR1", "value": "decreasing expression"}, {"measurement": "phosphorylation of SMAD1/5/8 (pSMAD1/5/8)", "setting": "pSMAD1/5/8, SETD1A, MDR1", "value": "increases phosphorylation of SMAD1/5/8"}]}
